# Reference: the kinase profiling compilation of Christmann-Franck et al. (2016)
# Legend:
# Assay in all cases: KINOMEscan competition binding
# Conditions in all cases: compound 1.0 µM
# [1] = biological target: ACVR1B (human) (UniProt P36896)
# [2] = biological target: ADCK3 (human) (UniProt Q8NI60)
# [3] = biological target: BMX (human) (UniProt P51813)
# [4] = tested on: BRAF (human), P15056 [V600E]
# [5] = biological target: CDK13 (human) (UniProt Q14004)
# [6] = tested on: CPK1 (P.falciparum)
# [7] = biological target: CSNK1A1 (human) (UniProt P48729)
# [8] = biological target: CSNK1A1L (human) (UniProt Q8N752)
# [9] = biological target: DAPK1 (human) (UniProt P53355)
# [10] = biological target: EPHB1 (human) (UniProt P54762)
# [11] = tested on: FGFR3 (human), P22607 [G697C]
# [12] = biological target: GRK4 (human) (UniProt P32298)
# [13] = biological target: IGF1R (human) (UniProt P08069)
# [14] = tested on: KIT (human), P10721 [V559D/T670I]
# [15] = biological target: LTK (human) (UniProt P29376)
# [16] = biological target: MAP2K3 (human) (UniProt P46734)
# [17] = biological target: MAP2K4 (human) (UniProt P45985)
# [18] = biological target: MAP2K7 (human) (UniProt O14733)
# [19] = biological target: MAPK12 (human) (UniProt P53778)
# [20] = biological target: MELK (human) (UniProt Q14680)
# [21] = tested on: MET (human), P08581 [Y1235D]
# [22] = biological target: NUAK1 (human) (UniProt O60285)
# [23] = biological target: PAK1 (human) (UniProt Q13153)
# [24] = biological target: PAK3 (human) (UniProt O75914)
# [25] = biological target: PIP4K2B (human) (UniProt P78356)
# [26] = biological target: PRKCD (human) (UniProt Q05655)
# [27] = biological target: RAF1 (human) (UniProt P04049)
# [28] = biological target: RPS6KA2 KD1 (human) (UniProt Q15349)
# [29] = biological target: RPS6KA6 KD2 (human) (UniProt Q9UK32)
# [30] = biological target: STK25 (human) (UniProt O00506)
# [31] = biological target: STK32B (human) (UniProt Q9NY57)
# [32] = biological target: STK35 (human) (UniProt Q8TDR2)
# [33] = biological target: TAOK1 (human) (UniProt Q7L7X3)
# [34] = biological target: TAOK2 (human) (UniProt Q9UL54)
# [35] = biological target: TBK1 (human) (UniProt Q9UHD2)
# [36] = biological target: TEC (human) (UniProt P42680)
# [37] = biological target: TLK1 (human) (UniProt Q9UKI8)
# [38] = biological target: TLK2 (human) (UniProt Q86UE8)
# [39] = biological target: TNK1 (human) (UniProt Q13470)
# [40] = biological target: TNK2 (human) (UniProt Q07912)
# [41] = biological target: TYK2 JH1 catalytic (human) (UniProt P29597)
# [42] = biological target: TYRO3 (human) (UniProt Q06418)
# [43] = biological target: ULK1 (human) (UniProt O75385)
# Sequence of TYK2 JH1 catalytic (human) (P29597 whole entry, looked up): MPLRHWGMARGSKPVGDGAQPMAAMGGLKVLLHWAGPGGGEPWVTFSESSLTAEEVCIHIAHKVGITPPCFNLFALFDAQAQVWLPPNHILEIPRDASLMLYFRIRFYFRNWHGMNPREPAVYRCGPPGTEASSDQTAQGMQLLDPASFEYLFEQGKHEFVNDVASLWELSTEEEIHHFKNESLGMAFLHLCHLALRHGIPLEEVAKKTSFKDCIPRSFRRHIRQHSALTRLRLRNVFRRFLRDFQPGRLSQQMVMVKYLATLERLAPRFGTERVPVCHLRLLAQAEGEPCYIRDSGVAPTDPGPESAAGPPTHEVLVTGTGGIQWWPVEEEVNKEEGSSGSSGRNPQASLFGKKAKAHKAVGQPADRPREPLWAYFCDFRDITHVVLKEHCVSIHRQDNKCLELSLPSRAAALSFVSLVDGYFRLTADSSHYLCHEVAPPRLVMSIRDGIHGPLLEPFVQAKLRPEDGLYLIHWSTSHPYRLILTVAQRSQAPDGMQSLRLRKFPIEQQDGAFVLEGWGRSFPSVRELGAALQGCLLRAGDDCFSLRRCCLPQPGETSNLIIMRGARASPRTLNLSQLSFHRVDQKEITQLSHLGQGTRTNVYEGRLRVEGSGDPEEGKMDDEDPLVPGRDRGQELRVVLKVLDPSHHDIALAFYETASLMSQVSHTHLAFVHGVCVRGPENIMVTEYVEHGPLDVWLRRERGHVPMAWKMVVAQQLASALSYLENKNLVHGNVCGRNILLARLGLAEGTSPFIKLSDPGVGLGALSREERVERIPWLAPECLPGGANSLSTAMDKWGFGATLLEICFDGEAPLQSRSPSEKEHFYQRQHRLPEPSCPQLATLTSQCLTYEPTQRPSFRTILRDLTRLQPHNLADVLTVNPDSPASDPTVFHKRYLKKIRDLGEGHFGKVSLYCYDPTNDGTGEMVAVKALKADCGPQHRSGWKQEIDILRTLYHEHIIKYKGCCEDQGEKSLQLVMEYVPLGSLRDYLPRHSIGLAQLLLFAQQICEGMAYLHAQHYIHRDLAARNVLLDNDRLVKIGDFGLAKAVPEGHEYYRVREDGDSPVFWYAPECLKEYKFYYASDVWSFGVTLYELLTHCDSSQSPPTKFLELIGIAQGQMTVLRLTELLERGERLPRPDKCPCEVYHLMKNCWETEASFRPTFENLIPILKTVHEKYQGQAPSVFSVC
# Sequence of TAOK1 (human) (Q7L7X3 whole entry, looked up): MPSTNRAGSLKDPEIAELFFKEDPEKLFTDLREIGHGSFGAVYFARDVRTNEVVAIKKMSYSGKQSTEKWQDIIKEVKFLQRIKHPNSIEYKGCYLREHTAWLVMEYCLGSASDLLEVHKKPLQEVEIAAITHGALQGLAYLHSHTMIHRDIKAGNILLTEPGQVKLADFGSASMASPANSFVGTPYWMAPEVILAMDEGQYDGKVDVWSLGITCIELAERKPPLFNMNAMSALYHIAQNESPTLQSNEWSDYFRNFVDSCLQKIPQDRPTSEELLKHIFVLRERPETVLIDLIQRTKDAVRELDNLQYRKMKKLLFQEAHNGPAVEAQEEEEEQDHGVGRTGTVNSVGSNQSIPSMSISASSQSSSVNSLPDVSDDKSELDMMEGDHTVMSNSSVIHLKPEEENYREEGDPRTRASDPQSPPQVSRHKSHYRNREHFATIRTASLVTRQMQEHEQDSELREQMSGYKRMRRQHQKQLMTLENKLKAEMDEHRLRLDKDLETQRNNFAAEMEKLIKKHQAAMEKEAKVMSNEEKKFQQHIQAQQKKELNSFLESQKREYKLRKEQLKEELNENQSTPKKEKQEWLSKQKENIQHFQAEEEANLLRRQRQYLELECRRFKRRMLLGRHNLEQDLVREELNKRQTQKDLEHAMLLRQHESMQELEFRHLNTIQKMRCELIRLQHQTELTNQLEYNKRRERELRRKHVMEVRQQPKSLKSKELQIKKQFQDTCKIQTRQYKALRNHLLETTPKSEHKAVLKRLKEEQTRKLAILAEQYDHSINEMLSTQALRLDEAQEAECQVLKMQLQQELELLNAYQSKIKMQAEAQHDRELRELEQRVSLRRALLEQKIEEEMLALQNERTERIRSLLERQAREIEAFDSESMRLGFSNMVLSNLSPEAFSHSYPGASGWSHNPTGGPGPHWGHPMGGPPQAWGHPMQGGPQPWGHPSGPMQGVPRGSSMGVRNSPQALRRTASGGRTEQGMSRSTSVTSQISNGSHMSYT
# Sequence of NUAK1 (human) (O60285 whole entry, looked up): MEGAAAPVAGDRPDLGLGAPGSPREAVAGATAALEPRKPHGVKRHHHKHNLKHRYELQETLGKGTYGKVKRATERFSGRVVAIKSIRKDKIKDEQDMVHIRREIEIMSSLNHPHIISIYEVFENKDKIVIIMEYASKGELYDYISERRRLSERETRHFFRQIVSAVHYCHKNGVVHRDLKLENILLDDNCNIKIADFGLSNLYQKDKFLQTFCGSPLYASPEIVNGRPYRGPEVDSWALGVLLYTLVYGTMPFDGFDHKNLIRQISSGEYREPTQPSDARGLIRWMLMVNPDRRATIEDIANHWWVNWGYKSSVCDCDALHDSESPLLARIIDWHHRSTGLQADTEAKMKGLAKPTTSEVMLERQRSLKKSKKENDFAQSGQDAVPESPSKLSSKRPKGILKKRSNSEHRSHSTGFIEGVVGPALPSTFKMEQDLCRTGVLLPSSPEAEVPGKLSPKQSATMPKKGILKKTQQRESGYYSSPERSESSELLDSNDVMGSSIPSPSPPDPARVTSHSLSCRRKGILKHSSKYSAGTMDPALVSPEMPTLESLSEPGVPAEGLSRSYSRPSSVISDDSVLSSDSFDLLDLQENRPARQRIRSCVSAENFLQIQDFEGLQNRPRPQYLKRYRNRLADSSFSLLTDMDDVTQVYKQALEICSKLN
# Sequence of RAF1 (human) (P04049 whole entry, looked up): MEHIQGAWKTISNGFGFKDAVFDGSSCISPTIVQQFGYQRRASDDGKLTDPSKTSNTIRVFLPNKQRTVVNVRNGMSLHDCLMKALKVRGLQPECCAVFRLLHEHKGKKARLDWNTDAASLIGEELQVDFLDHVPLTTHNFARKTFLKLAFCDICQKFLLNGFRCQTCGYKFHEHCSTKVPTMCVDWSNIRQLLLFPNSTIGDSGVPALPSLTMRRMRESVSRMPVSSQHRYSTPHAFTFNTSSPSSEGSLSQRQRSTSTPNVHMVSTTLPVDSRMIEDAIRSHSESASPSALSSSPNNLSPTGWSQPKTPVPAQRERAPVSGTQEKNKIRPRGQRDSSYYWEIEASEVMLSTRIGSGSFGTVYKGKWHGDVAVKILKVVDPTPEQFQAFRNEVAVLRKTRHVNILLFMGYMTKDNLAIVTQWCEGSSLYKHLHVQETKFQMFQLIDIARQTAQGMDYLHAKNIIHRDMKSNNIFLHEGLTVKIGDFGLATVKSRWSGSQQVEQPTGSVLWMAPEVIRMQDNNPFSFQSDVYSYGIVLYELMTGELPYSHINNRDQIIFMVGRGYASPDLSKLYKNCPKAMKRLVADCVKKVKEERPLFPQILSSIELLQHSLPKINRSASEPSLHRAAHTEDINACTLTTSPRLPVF
# Sequence of DAPK1 (human) (P53355 whole entry, looked up): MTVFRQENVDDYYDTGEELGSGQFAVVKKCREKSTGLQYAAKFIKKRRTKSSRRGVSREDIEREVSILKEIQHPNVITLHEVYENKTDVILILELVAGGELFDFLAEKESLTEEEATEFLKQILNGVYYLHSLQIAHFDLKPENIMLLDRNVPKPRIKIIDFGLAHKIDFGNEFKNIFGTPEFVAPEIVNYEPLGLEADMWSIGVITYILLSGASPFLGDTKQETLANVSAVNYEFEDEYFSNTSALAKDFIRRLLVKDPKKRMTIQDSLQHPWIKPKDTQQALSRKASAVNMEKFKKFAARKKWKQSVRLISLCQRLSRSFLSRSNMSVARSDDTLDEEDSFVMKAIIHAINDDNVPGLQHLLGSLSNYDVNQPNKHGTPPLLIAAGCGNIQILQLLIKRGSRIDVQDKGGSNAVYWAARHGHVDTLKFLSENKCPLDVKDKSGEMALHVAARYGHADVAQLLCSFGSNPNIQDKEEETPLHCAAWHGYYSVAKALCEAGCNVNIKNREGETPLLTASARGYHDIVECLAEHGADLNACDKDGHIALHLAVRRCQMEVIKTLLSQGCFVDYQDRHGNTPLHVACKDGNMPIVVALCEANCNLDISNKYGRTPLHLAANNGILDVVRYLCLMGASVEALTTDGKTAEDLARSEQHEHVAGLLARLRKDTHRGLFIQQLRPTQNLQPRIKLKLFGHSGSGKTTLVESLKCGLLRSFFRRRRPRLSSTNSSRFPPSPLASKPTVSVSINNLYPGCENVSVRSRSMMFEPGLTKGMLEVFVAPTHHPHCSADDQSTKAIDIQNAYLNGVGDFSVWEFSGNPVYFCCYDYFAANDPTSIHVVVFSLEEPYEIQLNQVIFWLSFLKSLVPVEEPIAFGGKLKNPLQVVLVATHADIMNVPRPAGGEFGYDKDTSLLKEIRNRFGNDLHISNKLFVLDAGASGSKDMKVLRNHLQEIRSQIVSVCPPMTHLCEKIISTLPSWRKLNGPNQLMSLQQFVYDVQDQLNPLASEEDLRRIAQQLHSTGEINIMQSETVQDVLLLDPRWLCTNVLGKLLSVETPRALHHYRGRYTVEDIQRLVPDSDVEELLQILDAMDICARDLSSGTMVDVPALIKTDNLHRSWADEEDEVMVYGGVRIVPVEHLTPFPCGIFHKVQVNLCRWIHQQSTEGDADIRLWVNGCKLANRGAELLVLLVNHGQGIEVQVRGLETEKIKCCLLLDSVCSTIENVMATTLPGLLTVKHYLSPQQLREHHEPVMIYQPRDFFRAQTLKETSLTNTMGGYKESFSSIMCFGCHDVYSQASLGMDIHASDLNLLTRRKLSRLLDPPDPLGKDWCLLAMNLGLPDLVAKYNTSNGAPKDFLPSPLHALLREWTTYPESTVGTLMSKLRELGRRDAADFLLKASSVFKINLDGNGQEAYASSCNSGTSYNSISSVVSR
compound,measurement,setting,value
Cc1cc(NC(=O)c2cccc(NC(=O)/C=C/CN(C)C)c2)ccc1Nc1nccc(-c2cccnc2)n1,"kinase still bound, per cent of control",[1],88%
same,"kinase still bound, per cent of control",[2],100%
same,"kinase still bound, per cent of control",[3],100%
same,"kinase still bound, per cent of control",[4],100%
same,"kinase still bound, per cent of control",[5],100%
same,"kinase still bound, per cent of control",[6],100%
same,"kinase still bound, per cent of control",[7],73%
same,"kinase still bound, per cent of control",[8],71%
same,"kinase still bound, per cent of control",[9],100%
same,"kinase still bound, per cent of control",[10],100%
same,"kinase still bound, per cent of control",[11],100%
same,"kinase still bound, per cent of control",[12],96%
same,"kinase still bound, per cent of control",[13],93%
same,"kinase still bound, per cent of control",[14],4.4%
same,"kinase still bound, per cent of control",[15],100%
same,"kinase still bound, per cent of control",[16],95%
same,"kinase still bound, per cent of control",[17],70%
same,"kinase still bound, per cent of control",[18],59%
same,"kinase still bound, per cent of control",[19],100%
same,"kinase still bound, per cent of control",[20],71%
same,"kinase still bound, per cent of control",[21],100%
same,"kinase still bound, per cent of control",[22],100%
same,"kinase still bound, per cent of control",[23],100%
same,"kinase still bound, per cent of control",[24],100%
same,"kinase still bound, per cent of control",[25],99%
same,"kinase still bound, per cent of control",[26],100%
same,"kinase still bound, per cent of control",[27],93%
same,"kinase still bound, per cent of control",[28],100%
same,"kinase still bound, per cent of control",[29],76%
same,"kinase still bound, per cent of control",[30],92%
same,"kinase still bound, per cent of control",[31],90%
same,"kinase still bound, per cent of control",[32],68%
same,"kinase still bound, per cent of control",[33],67%
same,"kinase still bound, per cent of control",[34],73%
same,"kinase still bound, per cent of control",[35],100%
same,"kinase still bound, per cent of control",[36],100%
same,"kinase still bound, per cent of control",[37],98%
same,"kinase still bound, per cent of control",[38],100%
same,"kinase still bound, per cent of control",[39],60%
same,"kinase still bound, per cent of control",[40],90%
same,"kinase still bound, per cent of control",[41],96%
same,"kinase still bound, per cent of control",[42],85%
same,"kinase still bound, per cent of control",[43],100%
CN(C)C/C=C/C(=O)Nc1cccc(C(=O)Nc2ccc(Nc3nccc(-c4cccnc4)n3)cc2)c1,"kinase still bound, per cent of control",[1],86%
same,"kinase still bound, per cent of control",[2],58%
same,"kinase still bound, per cent of control",[3],70%
same,"kinase still bound, per cent of control",[4],60%
same,"kinase still bound, per cent of control",[5],43%
same,"kinase still bound, per cent of control",[6],77%
same,"kinase still bound, per cent of control",[7],19%
same,"kinase still bound, per cent of control",[8],37%
same,"kinase still bound, per cent of control",[9],63%
same,"kinase still bound, per cent of control",[10],92%
same,"kinase still bound, per cent of control",[11],100%
same,"kinase still bound, per cent of control",[12],32%
same,"kinase still bound, per cent of control",[13],100%
same,"kinase still bound, per cent of control",[14],9.8%
same,"kinase still bound, per cent of control",[15],100%
same,"kinase still bound, per cent of control",[16],41%
same,"kinase still bound, per cent of control",[17],78%
same,"kinase still bound, per cent of control",[18],100%
same,"kinase still bound, per cent of control",[19],78%
same,"kinase still bound, per cent of control",[20],30%
same,"kinase still bound, per cent of control",[21],100%
same,"kinase still bound, per cent of control",[22],37%
same,"kinase still bound, per cent of control",[23],69%
same,"kinase still bound, per cent of control",[24],100%
same,"kinase still bound, per cent of control",[25],18%
same,"kinase still bound, per cent of control",[26],76%
same,"kinase still bound, per cent of control",[27],100%
same,"kinase still bound, per cent of control",[28],100%
same,"kinase still bound, per cent of control",[29],100%
same,"kinase still bound, per cent of control",[30],58%
same,"kinase still bound, per cent of control",[31],100%
same,"kinase still bound, per cent of control",[32],67%
same,"kinase still bound, per cent of control",[33],13%
same,"kinase still bound, per cent of control",[34],54%
same,"kinase still bound, per cent of control",[35],61%
same,"kinase still bound, per cent of control",[36],100%
same,"kinase still bound, per cent of control",[37],92%
same,"kinase still bound, per cent of control",[38],92%
same,"kinase still bound, per cent of control",[39],67%
same,"kinase still bound, per cent of control",[40],100%
same,"kinase still bound, per cent of control",[41],16%
same,"kinase still bound, per cent of control",[42],87%
same,"kinase still bound, per cent of control",[43],100%
